Values of other authors in patent US20070253988A1, “Methods for peeling skin” (L'OREAL, priority 2006, published 2007).

Conditions: approximately 20° C., concentration of 0.1 M

Row | Compound | pKa
1 | O=S(=O)(O)CCN1CCN(CCO)CC1 [N-2-hydroxyethylpiperazine-N′-2-ethanesulfonic acid] | 7.55
2 | O=S(=O)(O)CCN1CCN(CCS(=O)(=O)O)CC1 [piperazine-N,N′-bis[2-ethanesulfonic]acid] | 6.82
3 | O=S(=O)(O)CCN(CCO)CCO [N,N-bis[2-hydroxyethyl]-2-aminoethanesulfonic acid] | 7.17
4 | NC(=O)CNCCS(=O)(=O)O [N-(2-acetamido)-2-aminoethanesulfonic acid] | 6.88
